Measured values taken from US8192962B2, “Processes for detecting toxic substances” (Daikin Industries, Ltd., priority 2001, dated 2012).

Tested on: Metabolism protein genes
Assay: DNA chip mRNA expression in yeast, metabolism protein genes (Table 7)
Type: cell-based, Saccharomyces cerevisiae S288C
Outline: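 S. cerevisiae S288C grown at 25° C. in YPD to log phase, then exposed 2 h to a toxicant at a growth-inhibiting, non-lethal concentration; untreated cells as control. Poly(A) mRNA reverse-transcribed with Cy3-dUTP or Cy5-dUTP, hybridized >12 h at 65° C. to whole-genome yeast DNA chip; value = fluorescence ratio treated/untreated.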

CCCCC[C@H](O)CC(=O)CCc1ccc(O)c(OC)c1 [(13), gingerol]
The level of expressed mRNA in the presence of chemical substance/The level of expressed mRNA in the absence of chemical substance (yeast gene YAL012W): 1.1
The level of expressed mRNA in the presence of chemical substance/The level of expressed mRNA in the absence of chemical substance (yeast gene YAL038W): 1.8
The level of expressed mRNA in the presence of chemical substance/The level of expressed mRNA in the absence of chemical substance (yeast gene YAL044C): 1.1
The level of expressed mRNA in the presence of chemical substance/The level of expressed mRNA in the absence of chemical substance (yeast gene YAL054C): 1.8
The level of expressed mRNA in the presence of chemical substance/The level of expressed mRNA in the absence of chemical substance (yeast gene YAR071W): 0.3
The level of expressed mRNA in the presence of chemical substance/The level of expressed mRNA in the absence of chemical substance (yeast gene YBL001C): 1.0
level of expressed mRNA in the presence/in the absence of chemical substance (yeast gene YBR003W): 1.2
level of expressed mRNA in the presence/in the absence of chemical substance (yeast gene YBR011C): 1.5
The level of expressed mRNA in the presence of chemical substance/The level of expressed mRNA in the absence of chemical substance (yeast gene YBR014C): 0.9
level of expressed mRNA in the presence/in the absence of chemical substance (yeast gene YBR020W): 1.1
The level of expressed mRNA in the presence of chemical substance/The level of expressed mRNA in the absence of chemical substance (yeast gene YBR023C): 0.5
The level of expressed mRNA in the presence of chemical substance/The level of expressed mRNA in the absence of chemical substance (yeast gene YBR029C): 1.7
The level of expressed mRNA in the presence of chemical substance/The level of expressed mRNA in the absence of chemical substance (yeast gene YBR035C): 1.8
The level of expressed mRNA in the presence of chemical substance/The level of expressed mRNA in the absence of chemical substance (yeast gene YBR068C): 2.2
The level of expressed mRNA in the presence of chemical substance/The level of expressed mRNA in the absence of chemical substance (yeast gene YBR111C): 1.6
The level of expressed mRNA in the presence of chemical substance/The level of expressed mRNA in the absence of chemical substance (yeast gene YBR183W): 1.4
The level of expressed mRNA in the presence of chemical substance/The level of expressed mRNA in the absence of chemical substance (yeast gene YBR222C): 1.6
The level of expressed mRNA in the presence of chemical substance/The level of expressed mRNA in the absence of chemical substance (yeast gene YBR256C): 3.5
The level of expressed mRNA in the presence of chemical substance/The level of expressed mRNA in the absence of chemical substance (yeast gene YBR296C): 2.0
The level of expressed mRNA in the presence of chemical substance/The level of expressed mRNA in the absence of chemical substance (yeast gene YCL009C): 1.6
The level of expressed mRNA in the presence of chemical substance/The level of expressed mRNA in the absence of chemical substance (yeast gene YCL064C): 1.6
level of expressed mRNA in the presence/in the absence of chemical substance (yeast gene YCR010C): 1.0
level of expressed mRNA in the presence/in the absence of chemical substance (yeast gene YCR034W): 0.2
The level of expressed mRNA in the presence of chemical substance/The level of expressed mRNA in the absence of chemical substance (yeast gene YCR037C): 1.3
The level of expressed mRNA in the presence of chemical substance/The level of expressed mRNA in the absence of chemical substance (yeast gene YCR048W): 1.3
The level of expressed mRNA in the presence of chemical substance/The level of expressed mRNA in the absence of chemical substance (yeast gene YCR098C): 1.4
The level of expressed mRNA in the presence of chemical substance/The level of expressed mRNA in the absence of chemical substance (yeast gene YDL021W): 5.3
The level of expressed mRNA in the presence of chemical substance/The level of expressed mRNA in the absence of chemical substance (yeast gene YDL022W): 1.5
The level of expressed mRNA in the presence of chemical substance/The level of expressed mRNA in the absence of chemical substance (yeast gene YDR009W): 1.2
The level of expressed mRNA in the presence of chemical substance/The level of expressed mRNA in the absence of chemical substance (yeast gene YDR019C): 1.0
level of expressed mRNA in the presence/in the absence of chemical substance (yeast gene YDR050C): 2.0
level of expressed mRNA in the presence/in the absence of chemical substance (yeast gene YDR073W): 0.6
level of expressed mRNA in the presence/in the absence of chemical substance (yeast gene YDR123C): 0.9
level of expressed mRNA in the presence/in the absence of chemical substance (yeast gene YDR178W): 1.5
level of expressed mRNA in the presence/in the absence of chemical substance (yeast gene YDR277C): 1.2
level of expressed mRNA in the presence/in the absence of chemical substance (yeast gene YDR284C): 1.2
level of expressed mRNA in the presence/in the absence of chemical substance (yeast gene YDR345C): 1.2
level of expressed mRNA in the presence/in the absence of chemical substance (yeast gene YDR400W): 0.7
level of expressed mRNA in the presence/in the absence of chemical substance (yeast gene YDR408C): 0.5
The level of expressed mRNA in the presence of chemical substance/The level of expressed mRNA in the absence of chemical substance (yeast gene YDR410C): 1.2
level of expressed mRNA in the presence/in the absence of chemical substance (yeast gene YDR483W): 1.3
The level of expressed mRNA in the presence of chemical substance/The level of expressed mRNA in the absence of chemical substance (yeast gene YDR487C): 1.5
The level of expressed mRNA in the presence of chemical substance/The level of expressed mRNA in the absence of chemical substance (yeast gene YDR502C): 1.2
The level of expressed mRNA in the presence of chemical substance/The level of expressed mRNA in the absence of chemical substance (yeast gene YDR516C): 2.5
The level of expressed mRNA in the presence of chemical substance/The level of expressed mRNA in the absence of chemical substance (yeast gene YEL011W): 1.5
level of expressed mRNA in the presence/in the absence of chemical substance (yeast gene YEL063C): 1.1
level of expressed mRNA in the presence/in the absence of chemical substance (yeast gene YER015W): 0.8
The level of expressed mRNA in the presence of chemical substance/The level of expressed mRNA in the absence of chemical substance (yeast gene YER026C): 1.9
The level of expressed mRNA in the presence of chemical substance/The level of expressed mRNA in the absence of chemical substance (yeast gene YER053C): 4.1
The level of expressed mRNA in the presence of chemical substance/The level of expressed mRNA in the absence of chemical substance (yeast gene YER069W): 1.4
level of expressed mRNA in the presence/in the absence of chemical substance (yeast gene YER081W): 0.6
The level of expressed mRNA in the presence of chemical substance/The level of expressed mRNA in the absence of chemical substance (yeast gene YER096W): 2.3
level of expressed mRNA in the presence/in the absence of chemical substance (yeast gene YER120W): 1.0
The level of expressed mRNA in the presence of chemical substance/The level of expressed mRNA in the absence of chemical substance (yeast gene YER178W): 2.4
level of expressed mRNA in the presence/in the absence of chemical substance (yeast gene YFL011W): 0.8
The level of expressed mRNA in the presence of chemical substance/The level of expressed mRNA in the absence of chemical substance (yeast gene YFL030W): 2.2
The level of expressed mRNA in the presence of chemical substance/The level of expressed mRNA in the absence of chemical substance (yeast gene YFL031W): 2.6
The level of expressed mRNA in the presence of chemical substance/The level of expressed mRNA in the absence of chemical substance (yeast gene YFL056C): 4.7
The level of expressed mRNA in the presence of chemical substance/The level of expressed mRNA in the absence of chemical substance (yeast gene YFL057C): 4.1
level of expressed mRNA in the presence/in the absence of chemical substance (yeast gene YGL012W): 0.3
The level of expressed mRNA in the presence of chemical substance/The level of expressed mRNA in the absence of chemical substance (yeast gene YGL022W): 1.0
level of expressed mRNA in the presence/in the absence of chemical substance (yeast gene YGL115W): 0.7
The level of expressed mRNA in the presence of chemical substance/The level of expressed mRNA in the absence of chemical substance (yeast gene YGL184C): 7.4
level of expressed mRNA in the presence/in the absence of chemical substance (yeast gene YGL205W): 1.0
The level of expressed mRNA in the presence of chemical substance/The level of expressed mRNA in the absence of chemical substance (yeast gene YGL209W): 1.9
The level of expressed mRNA in the presence of chemical substance/The level of expressed mRNA in the absence of chemical substance (yeast gene YGL248W): 2.0
The level of expressed mRNA in the presence of chemical substance/The level of expressed mRNA in the absence of chemical substance (yeast gene YGR055W): 1.9
level of expressed mRNA in the presence/in the absence of chemical substance (yeast gene YGR096W): 1.1
level of expressed mRNA in the presence/in the absence of chemical substance (yeast gene YGR191W): 1.0
The level of expressed mRNA in the presence of chemical substance/The level of expressed mRNA in the absence of chemical substance (yeast gene YGR194C): 2.2
level of expressed mRNA in the presence/in the absence of chemical substance (yeast gene YGR204W): 1.3
The level of expressed mRNA in the presence of chemical substance/The level of expressed mRNA in the absence of chemical substance (yeast gene YGR282C): 1.2
level of expressed mRNA in the presence/in the absence of chemical substance (yeast gene YGR288W): 1.3
level of expressed mRNA in the presence/in the absence of chemical substance (yeast gene YHR025W): 0.7
The level of expressed mRNA in the presence of chemical substance/The level of expressed mRNA in the absence of chemical substance (yeast gene YHR111W): 2.2
level of expressed mRNA in the presence/in the absence of chemical substance (yeast gene YHR123W): 1.5
The level of expressed mRNA in the presence of chemical substance/The level of expressed mRNA in the absence of chemical substance (yeast gene YHR137W): 0.6
The level of expressed mRNA in the presence of chemical substance/The level of expressed mRNA in the absence of chemical substance (yeast gene YHR176W): 1.9
level of expressed mRNA in the presence/in the absence of chemical substance (yeast gene YHR210C): 0.4
level of expressed mRNA in the presence/in the absence of chemical substance (yeast gene YIL006W): 0.8
The level of expressed mRNA in the presence of chemical substance/The level of expressed mRNA in the absence of chemical substance (yeast gene YIL045W): 2.0
The level of expressed mRNA in the presence of chemical substance/The level of expressed mRNA in the absence of chemical substance (yeast gene YIL107C): 1.9
The level of expressed mRNA in the presence of chemical substance/The level of expressed mRNA in the absence of chemical substance (yeast gene YIL154C): 1.7
The level of expressed mRNA in the presence of chemical substance/The level of expressed mRNA in the absence of chemical substance (yeast gene YIL155C): 2.0
The level of expressed mRNA in the presence of chemical substance/The level of expressed mRNA in the absence of chemical substance (yeast gene YIL167W): 1.2
The level of expressed mRNA in the presence of chemical substance/The level of expressed mRNA in the absence of chemical substance (yeast gene YIR034C): 2.6
The level of expressed mRNA in the presence of chemical substance/The level of expressed mRNA in the absence of chemical substance (yeast gene YIR036C): 1.9
The level of expressed mRNA in the presence of chemical substance/The level of expressed mRNA in the absence of chemical substance (yeast gene YJL031C): 2.6
The level of expressed mRNA in the presence of chemical substance/The level of expressed mRNA in the absence of chemical substance (yeast gene YJL068C): 2.7
The level of expressed mRNA in the presence of chemical substance/The level of expressed mRNA in the absence of chemical substance (yeast gene YJL088W): 1.0
